# According to patent publication US20160089377A1, “THERAPEUTIC TARGETING OF THE MTOR PATHWAY IN NEURODEVELOPMENTAL AND NEUROPSYCHIATRIC DISEASE” (THE TRUSTEES OF COLUMBIA UNIVERISTY IN THE CITY OF NEW YORK, priority 2013, published 2016):
# Entries after “also recorded” stand apart in the source; their conditions may differ.
# System: Cntnap2 mutant mice
# Experiment: Novel Object Recognition (NOR) test
# Type: in vivo
# Settings: WYE125132-treated Cntnap2-/- mice, P<0.05
# Procedure: Cntnap2 mutant and WT mice were obtained from heterozygous crossings and were born with the expected Mendelian frequencies. The three obtained genotypes were housed together. Mice were treated with p.o. gavaging once per day with either WYE125132 (10 mg/kg) or vehicle. All procedures involving animals were performed in accordance with the Columbia University/New York State Psychiatric Institute animal research committee.
# WYE125132 (Chemscene) was administered by a daily p.o. gavaging in a volume of 10 ml/kg. For all behavioral experiments, dams were treated from PO to P12 after which individual pups were gavaged on a daily basis going forward. Mice also received drug treatment on the days of testing, at least 1 hour prior the experiment. For the two-photon and cell size quantitation studies, mice were gavaged from P12 to p35, after they were
# Mice were marked with ear tagging. Experimenters were blinded to the genotype during testing. Behavioral tests were performed in the New York State Psychiatric Institute behavioral test core facility.
# We examined whether we could reverse cognitive deficits in Cntnap2 mutant mice. We subjected Cntnap2 mutant mice to the Novel Object Recognition (NOR) test, a behavioral task that requires precise cognitive control. […]
compound,measurement,value
CNC(=O)Nc1ccc(-c2nc(N3CC4CCC(C3)O4)c3cnn(C4CCC5(CC4)OCCO5)c3n2)cc1 [WYE125132],deficit in the Novel Object Recognition test,rescue of this phenotype; also recorded: rescue of a deficit
